In one series the test system is HCVcc-Luc (2a). Nature of the series: microbe, parasite or virus in culture. The series is classed as cell-based, HCV. The following applies: read-out: EC50, HCVcc-Luc (2a).
Series [1] is described as follows: ATPlite cytotoxicity assay under Con1b replicon efficacy assay conditions. Conditions: human. The series is classed as cell-based. In general terms: In ATP-based viability assays light output follows the ATP content of the culture.
Another series relates to Con1b replicon. Nature of the series: Con1b replicon efficacy assay. The following applies: Hepatitis C virus, read-out: EC50, Con1b replicon. It is filed as cell-based, HCV.
The next series is described as follows: in vitro. The series is classed as cell-based. Conditions: human.

We go through six compounds from paper PMC5580926 (Antiviral therapy, 2016).

Like-named read-outs stand apart in the source and are kept apart here.

As usually defined, the EC50 is the concentration giving half of the maximal effect. For orientation: CC50 means the concentration that lowers cell viability or growth by half. Consider `C[C@@]1(O)[C@H](O)[C@@H](CO)O[C@H]1n1ccc(N)nc1=O` [2′-C-methylcytidine], for which the EC50 with HCVcc-Luc (2a) (Hepatitis C virus) was 1400 ± 400 nM; with Con1b replicon, 1610 ± 70 nM. Moreover, the cytotoxic concentration (CC50) (in series [1] (Con1b replicon cell line); in “in vitro”) was above 100000 nM throughout.

`CN1CCN([C@@H](c2ccccc2)c2ccc(Cl)cc2)CC1` [(S)-CCZ, (S)-chlorcyclizine]: in the series on HCVcc-Luc (2a) (single agent, mean of ≥3 independent tests ±SEM), the EC50 was determined as 24 ± 9 nM.

Take `CC(C)(C)NC(=O)N[C@H](C(=O)N1C[C@H]2[C@@H]([C@H]1C(=O)NC(CC1CCC1)C(=O)C(N)=O)C2(C)C)C(C)(C)C` (some centres unmarked) [Boceprevir, boceprevir]: the CC50 (in series [1]; in “in vitro”) was above 100000 nM each time. Moreover, the EC50 in the series with Con1b replicon is 620 ± 10 nM.

Turning to `COC(=O)N[C@H](C(=O)N1CCC[C@H]1c1nc(-c2ccc(-c3ccc(-c4c[nH]c([C@@H]5CCCN5C(=O)[C@@H](NC(=O)OC)C(C)C)n4)cc3)cc2)c[nH]1)C(C)C` [Daclatasvir, daclatasvir], the EC50 in the series on HCVcc-Luc (2a) (Hepatitis C virus) and in the series with Con1b replicon was 0.04 ± 0.02 nM throughout. Moreover, the CC50 turned out to be 22000 ± 1000 nM in series [1] (Con1b replicon cell line) and 45000 ± 1000 nM in “in vitro”.

In the case of `CC(C)OC(=O)[C@H](C)N[P@](=O)(OC[C@H]1O[C@@H](n2ccc(=O)[nH]c2=O)[C@](C)(F)[C@@H]1O)Oc1ccccc1` [Sofosbuvir, sofosbuvir], the concentration giving a half-maximal response (EC50) was 60 ± 2 nM in the series on HCVcc-Luc (2a) (Hepatitis C virus) and 400 ± 100 nM in the series with Con1b replicon. Moreover, the 50% cytotoxic concentration (CC50) (in series [1]; in “in vitro”) was above 100000 nM throughout.

On to `CCC[C@H](NC(=O)[C@@H]1[C@H]2CCC[C@H]2CN1C(=O)[C@@H](NC(=O)[C@@H](NC(=O)c1cnccn1)C1CCCCC1)C(C)(C)C)C(=O)C(=O)NC1CC1` [Telaprevir, telaprevir], for which the values for the EC50 in the series on HCVcc-Luc (2a) (Hepatitis C virus) and in the series with Con1b replicon were 200 ± 40 nM and 550 ± 50 nM, respectively. Moreover, the 50% cytotoxic concentration (CC50) is 97800 ± 900 nM in series [1] (Con1b replicon cell line) and above 100000 nM in “in vitro”.
